pIC50: −log10 of the molar value.
Key:
SGLT1 = target: T1, SGLT1 (Homo sapiens, UniProt P13866); assay: 14C-AMG uptake in BHK cells transfected with SGLT1 (96-well cell-based assay); details: 50 μM AMG, 37° C., 90 min
T1 construct: expressed in transfected cells
T1 sequence (P13866 1-664): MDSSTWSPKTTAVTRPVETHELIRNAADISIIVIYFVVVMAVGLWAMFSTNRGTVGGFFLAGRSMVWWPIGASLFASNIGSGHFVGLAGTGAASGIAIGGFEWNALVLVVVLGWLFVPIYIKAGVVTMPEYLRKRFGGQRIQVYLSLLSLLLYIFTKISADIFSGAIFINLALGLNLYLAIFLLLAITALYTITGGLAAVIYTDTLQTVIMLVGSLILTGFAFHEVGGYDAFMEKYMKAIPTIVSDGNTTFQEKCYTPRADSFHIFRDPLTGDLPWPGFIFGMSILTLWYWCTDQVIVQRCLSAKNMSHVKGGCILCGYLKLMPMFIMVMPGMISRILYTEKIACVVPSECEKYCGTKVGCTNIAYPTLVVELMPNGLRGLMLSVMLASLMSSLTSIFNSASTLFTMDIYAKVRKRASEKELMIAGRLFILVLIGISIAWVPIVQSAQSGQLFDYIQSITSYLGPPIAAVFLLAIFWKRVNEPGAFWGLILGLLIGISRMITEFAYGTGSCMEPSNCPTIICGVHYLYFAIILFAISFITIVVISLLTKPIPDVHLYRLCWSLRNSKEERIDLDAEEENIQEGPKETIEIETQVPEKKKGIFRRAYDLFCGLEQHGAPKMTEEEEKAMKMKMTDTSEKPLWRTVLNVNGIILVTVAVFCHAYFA
From the text: (§1) The compounds can be tested for their SGLT inhibition properties by means of BHK cells expressing SGLT1 and SGLT2. The production of the cells and the testing can be carried out as described below.
To construct the SGLT1 expression vector (KL225), the SLC5A1 gene (homologous to NM-000343) was amplified from a cDNA library using standard PCR technology and cloned over NheI/XhoI sites into the pcDNA3.1 expression vector (Invitrogen) containing neomycin as a selection marker. In this vector, transcription uses the enhancer/promoter of human cytomegalovirus.
(§2) The final vector KL225 together with an additional vector containing a dihydrofolate reductase gene as a selection marker was introduced into cells. […] After growth for 2-3 weeks, the cells were cloned (0.5 cells/well) and the clones were investigated for SGLT expression in radioactivity uptake tests. […]
(§3) BHK cells (transfected with SGLT1 or SGLT2) were seeded into 96-well microtitre plates (Cultureplates, Perkin Elmer). […] The radioactivity was counted in a Topcount microplate scintillation counter (Perkin Elmer). The non-specific uptake was determined in sodium-free assay buffer (266 mM sucrose, 2 mM KCl, 1 mM CaCl2, 1 mM MgCl2, 10 mM HEPES, 5 mM Tris, adjusted to pH 7.4 using 1 M KOH).

SGLT2 = target: T2, SGLT2 (Homo sapiens, UniProt P31639); assay: 14C-AMG uptake in BHK cells transfected with SGLT2 (96-well cell-based assay); details: 2 mM AMG, 37° C., 90 min
T2 construct: expressed in transfected cells
T2 sequence (P31639 1-672): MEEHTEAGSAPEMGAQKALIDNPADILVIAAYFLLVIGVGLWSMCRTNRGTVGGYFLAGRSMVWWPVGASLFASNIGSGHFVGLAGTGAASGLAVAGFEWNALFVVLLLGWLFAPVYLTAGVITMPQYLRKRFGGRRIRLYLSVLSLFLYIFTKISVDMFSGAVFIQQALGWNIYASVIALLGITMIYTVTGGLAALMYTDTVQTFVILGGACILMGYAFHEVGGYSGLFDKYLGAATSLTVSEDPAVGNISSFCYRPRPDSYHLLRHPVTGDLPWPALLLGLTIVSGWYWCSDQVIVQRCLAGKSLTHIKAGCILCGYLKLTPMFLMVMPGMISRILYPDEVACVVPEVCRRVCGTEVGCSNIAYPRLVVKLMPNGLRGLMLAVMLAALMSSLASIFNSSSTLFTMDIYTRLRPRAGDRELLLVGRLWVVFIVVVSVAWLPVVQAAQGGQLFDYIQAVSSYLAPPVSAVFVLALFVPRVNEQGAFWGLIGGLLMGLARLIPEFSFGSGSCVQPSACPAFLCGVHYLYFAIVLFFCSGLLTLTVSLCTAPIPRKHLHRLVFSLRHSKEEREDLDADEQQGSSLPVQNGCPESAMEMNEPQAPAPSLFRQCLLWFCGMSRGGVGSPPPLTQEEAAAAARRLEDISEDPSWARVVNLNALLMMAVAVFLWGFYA
From the text: as §1
To construct the SGLT2 expression vector (KL224), the SLC5A2 gene (homologous to NM_003041) was amplified from a cDNA library using standard PCR technology and cloned over NheI/XhoI sites into PCI-neo expression vector (Promega) containing neomycin as a selection marker. In this vector, transcription uses the enhancer/promoter of human cytomegalovirus and the SV40 polyadenylation signal.
as §2, with “KL224” for “KL225”
as §3

pIC50 (SGLT1)	pIC50 (SGLT2)	SMILES
5.00 to 6.00	6.00 to 8.00	COc1cccc(OCC(N)=O)c1-c1c(C#N)c2ccccn2c1Nc1c(C)cccc1C [Compound A1, 2-{2-[1-cyano-3-(2,6-dimethylphenylamino)indolizin-2-yl]-3-methoxyphenoxy}acetamide]
5.00 to 6.00	6.00 to 8.00	Cc1cccc(C)c1Nc1c(-c2ccccc2OCC(N)=O)c(C#N)c2ccccn12 [Compound A2, 2-{2-[1-Cyano-3-(2,6-dimethylphenylamino)indolizin-2-yl]phenoxy}acetamide]
